In assay [1] the test system is SKBR-3 breast cancer cell line. The assay can be described thus: MTT cytotoxicity, SKBR-3. Type of assay: cell-based, human. As to conditions: three days, read-out: EC50 (50% reduction in cell viability). The procedure: (§1) The cytotoxic activity of various phospho-derivatives of branched-chain fatty acids (DP-BFAs) was assayed in vitro in cell cultures that include normal and malignant cell types. The following cell systems were used: • Primary fibroblasts (human) • Normal bone marrow (BM) cells (mouse) • Primary bronchial epithelial cells (human, from Clonetics, cat. no. CC-2541) • Caco-2—colon cancer cell line (human, ATTC, HTB-37) • C6 glioma cell line (rat, ATCC, CRL-2199) • Neuro2a—neuroblastoma cell line (mouse, ATCC, CCL-131) • SKBR-3—breast cancer cell line (human, ATTC, HTB-30) • HL60—myeloid leukemia cell line (human, ATCC, CCL-240) • U937—myeloid leukemia cell line (human)
(§2) Cells were seeded in a microtiter plate in MEM containing 2 mM L-glutamine, 100 units/ml penicillin, 100 ug/ml streptomycin and 10% FCS at 37° C. The cultured cells were incubated, during their linear growth phase in the absence (control group) or presence of various DP-BFAs as indicated. The final concentrations of the tested DP-BFAs ranged from 1.5 to 200 microMolars. At the end of the incubation period, which was five days for the bone marrow cells and three days for all the other cell lines, the cytotoxic effect of the added P-BFA on the cells was estimated by using the colorimetric MTT assay. The MTT assay (Mosmann (1983) J. Immunol Methods 65: 55–63) measures mitochondrial reductase activity and serves for quantitative assessment of cellular viability. Drug concentration that causes 50% reduction in cell viability in comparison to the control group, is defined as EC50. The EC50 values of the tested DP-BFA compounds were calculated from dose response curves established for each of the different assayed cell lines.
(§3) Each EC50 value is an average of EC50 values derived from 1–5 independent experiments.

In assay [2] the test system is Normal bone marrow (BM) cells. The assay can be described thus: MTT cytotoxicity, normal bone marrow cells. The assay is classed as cell-based, mouse. The conditions noted are these: five days, read-out: EC50 (50% reduction in cell viability). The method, then: as §1, §2, §3
Assay [3] deals with blood brain barrier (BBB). The assay can be described thus: BBB permeability to EB-albumin and Fluorescein in normal rat brains. Type of assay: in vivo. The conditions noted are these: compounds at EC50 (Mannitol 25%); for % EB/g brain: control 0.04 ± 0.01; for Brain fluorescein uptake (% of serum F-Na level): control 0.3 ± 0.08; for Ratio F-Na/EB (mean of individual ratios): control 9.5 ± 1.6. In a few lines:
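In normal rats, Evans blue–albumin (70 kD) and fluorescein sodium (376 D) were infused into the external carotid artery over 30 s, with test compounds at their EC50 concentrations or vehicle. EB reported as percent of total per gram brain; fluorescein as percent of serum level.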

Assay [4] deals with blood brain barrier (BBB). The assay can be described thus: BBB permeabilization in rats, Evans blue extravasation into brain. Type of assay: in vivo, Sprague-Dawley rats. The conditions noted are these: for μg EB/g brain (at EC50): at EC50 (Mannitol at 25%); for MEC (minimal effective concentration): concentration giving 3 μg EB/g brain; for MEC: Table 8, sodium salt, in µM.
Where [5] appears, read: Table 6, rat brains, Evans blue extravasation, read-out: EQ50 (the source's name).
Where [6] appears, read: Mus musculus, Bone marrow cell, 120 h.

Several values for one entry are separate records, joined by “and”; a condition that tells them apart may be missing. Identical values can stand only once. Like-named read-outs stand apart in the source and are kept apart here.

Regarding `CCCCCCCCCCCCC(CCC)C(=O)OCCOCCOP(=O)([O-])[O-].[Na+].[Na+]` (centres unmarked) [3,12-DEG-PO4Na2, 2-[2′-(2″-Propyltetradecanoyloxy)-ethoxy]ethyl Disodium Phosphate], the EC50 in assay [1] came to 60 µM. Besides, the EC50 in assay [2] amounted to 62 µM. Further, in assay [3], the “% EB/g brain” value was found to be 1.4 ± 0.2%, the “Brain fluorescein uptake (% of serum F-Na level)” value is 9.0 ± 1.4 % of the F—Na level in the ser and the “Ratio F-Na/EB (mean of individual ratios)” value (from here on “Ratio F-Na/EB”) is 9.0 ± 1.2. For the same molecule, in assay [4] (Table 6), the “μg EB/g brain (at EC50)” value was 18 μg EB/g brain and 18 ± 3 μg EB/g brain; the “MEC (minimal effective concentration)” value is 3.3 µM and 3.3 ± 0.5 µM. For the same molecule, the EC50 in assay [4] (setting [5]) stood at 20 µM.

On to `CCCCCCCCCCCCC(CCC)C(=O)OCCOCCOP(=O)([O-])OCC[N+](C)(C)C` (centres unmarked) [3,12-DEG-PC, 2-(2′-Propyltetradecanoyloxy)ethoxyethylphosphocholine], for which, in assay [1] (Homo sapiens, SK-BR-3, 72 h), the EC50 came out at 40 µM. Further, the EC50 in assay [2] (setting [6]) was 166 µM. For the same molecule, in assay [3], the “% EB/g brain” value was found to be 0.6 ± 0.1%, the “Brain fluorescein uptake (% of serum F-Na level)” value is 2.9 ± 0.5 % of the F—Na level in the ser and the “Ratio F-Na/EB” value came out at 6.8 ± 0.8. In assay [4] (Table 6), the “μg EB/g brain (at EC50)” value turned out to be 14 ± 2 μg EB/g brain and the “MEC (minimal effective concentration)” value was found to be 15 ± 2 µM. Moreover, the EC50 in assay [4] (setting [5]) is 70 ± 12 µM. Further, the MEC in assay [4] was found to be 15 ± 2.

With `CCCCCCCCCCCCC(CCC)C(=O)OCCOP(=O)([O-])OCC[N+](C)(C)C` (centres unmarked) [3,12-MEG-PC, 2-(2′-Propyltetradecanoyloxy)ethylphosphocholine], the EC50 in assay [1] (Homo sapiens, SK-BR-3, 72 h) was 50 µM. In assay [2] (setting [6]), the EC50 is 95 µM. Further, in assay [3], the “% EB/g brain” value is on record as 0.9 ± 0.2%, the “Brain fluorescein uptake (% of serum F-Na level)” value is listed as 5.2 ± 0.8 % of the F—Na level in the ser and the “Ratio F-Na/EB” value is reported as 6.9 ± 0.1. Also, in assay [4] (Table 6), the “μg EB/g brain (at EC50)” value is on record as 15 ± 2 μg EB/g brain and the “MEC (minimal effective concentration)” value was 10 ± 1 µM. Also, the EC50 in assay [4] (setting [5]) turned out to be 19.5 ± 1.5 µM. Besides, in assay [4], the MEC is reported as 10 ± 1.

With “2-(4′-Hexadecanoyloxy)ethoxyethyl phosphate [3,12-DEG-PO4]”, the “Ratio F-Na/EB” value in assay [3] is given as “around 9”. Further, the MEC in assay [4] turned out to be 3.0 ± 0.5.

Take `CCCCCCCCCCCCC(CCC)C(=O)[O-].[Na+]` (centres unmarked) [3,12-Na, reference compound]: the EC50 in assay [1] was found to be 130 µM. In addition, in assay [3], the “% EB/g brain” value is reported as 1.8 ± 0.2%; the “Brain fluorescein uptake (% of serum F-Na level)” value is 6.4 ± 1.1 % of the F—Na level in the ser; the “Ratio F-Na/EB” value is 4.9 and 4.9 ± 0.9. Besides, in assay [4] (Evans blue extravasation in rat brain, 3,n-type BFAs), the “permeabilization of the BBB (FIG. 1, in words)” value was “active”. For the same molecule, the “MEC (minimal effective concentration)” value in assay [4] (Table 5) is reported as 6.5 ± 0.7. Further, the EC50 in assay [4] (Table 5, rat brain, intracarotid infusion, read-out: EC50 (Evans Blue extravasation)) was found to be 20 ± 3 µM. Moreover, in assay [4], the MEC was determined as 6.5 ± 0.7.

As for `CCCCCCCCCCCCC(CCC)OP(=O)([O-])OCC[N+](C)(C)C` (centres unmarked) [3,12-PC, 4-Hexadecanyl phosphocholine], the EC50 in assay [1] stood at 62 µM. Further, in assay [3], the “% EB/g brain” value turned out to be 0.8 ± 0.1%, the “Brain fluorescein uptake (% of serum F-Na level)” value is reported as 3.0 ± 0.5 % of the F—Na level in the ser and the “Ratio F-Na/EB” value was 7.8 ± 1.3. For the same molecule, in assay [4] (Table 6), the “μg EB/g brain (at EC50)” value was determined as 10 ± 1 μg EB/g brain and the “MEC (minimal effective concentration)” value was determined as 23 ± 4 µM. Moreover, the EC50 in assay [4] (setting [5]) was determined as 76 ± 14 µM. In addition, the MEC in assay [4] amounted to 23 ± 4.

These data come from US7186703B2, “Derivatives of branched-chain lipophilic molecules and uses thereof” (D-Pharm Ltd., priority 2000, dated 2007).
